Test results published in article PMC8391421, “Identification of Novel Positive Allosteric Modulators of Neurotrophin Receptors for the Treatment of Cognitive Dysfunction” (Cells, 2021).

Key:
[1] = tested on: extracellular neurotransmitter levels in ventral hippocampus; experiment: In vivo microdialysis of neurotransmitters in ventral hippocampus; design: species or system rat
Protocol: The microdialysis experiments were conducted using Pronexus AB, Bromma, Sweden (ethical permit N24/14) on awake, freely moving Sprague Dawley rats (n = 6, 7–8 weeks old from Janvier Labs, Le Genest-Saint-Isle, France) as previously described. On the day of the microdialysis experiment, the rat was in its home cage and placed into a frame of a single-beam locomotor activity monitoring system. Locomotor activity of rats undergoing microdialysis sampling was recorded simultaneously in 5-min intervals. A microdialysis probe (Eicom A-I: 0.22 mm O.D., 4 mm membrane length with 50 kDa cut-off) was inserted into the guide cannula of the awake rat. The probe was connected with fluorinated ethylene propylene (FEP) tubing (0.1 mm I.D.) to the balancing arm of the CMA 120 system for freely moving animals (CMA/Microdialysis) equipped with a 2-channel swivel (Microbiotech/se AB, Stockholm, Sweden). […] Concentrations of acetylcholine (ACh) and glutamate (Glu) in the microdialysis samples were measured using ultra-high performance liquid chromatography tandem mass spectrometry (UHPLC-MS/MS), whereas the levels of the monoamines dopamine (DA), noradrenaline (NA), and […] (5-HT) in the microdialysates were measured using ion-exchange narrow bore column liquid chromatography with electrochemical detection as described elsewhere. […]

[2] = target: T1, fibroblast growth factor receptor (FGFR1) (Homo sapiens, UniProt P11362); experiment: FGFR1 PathHunter cell-based assay (U2OS-FGFR1)
T1 construct: host or cells: U2OS (human osteosarcoma)
T1 sequence (P11362 22-822): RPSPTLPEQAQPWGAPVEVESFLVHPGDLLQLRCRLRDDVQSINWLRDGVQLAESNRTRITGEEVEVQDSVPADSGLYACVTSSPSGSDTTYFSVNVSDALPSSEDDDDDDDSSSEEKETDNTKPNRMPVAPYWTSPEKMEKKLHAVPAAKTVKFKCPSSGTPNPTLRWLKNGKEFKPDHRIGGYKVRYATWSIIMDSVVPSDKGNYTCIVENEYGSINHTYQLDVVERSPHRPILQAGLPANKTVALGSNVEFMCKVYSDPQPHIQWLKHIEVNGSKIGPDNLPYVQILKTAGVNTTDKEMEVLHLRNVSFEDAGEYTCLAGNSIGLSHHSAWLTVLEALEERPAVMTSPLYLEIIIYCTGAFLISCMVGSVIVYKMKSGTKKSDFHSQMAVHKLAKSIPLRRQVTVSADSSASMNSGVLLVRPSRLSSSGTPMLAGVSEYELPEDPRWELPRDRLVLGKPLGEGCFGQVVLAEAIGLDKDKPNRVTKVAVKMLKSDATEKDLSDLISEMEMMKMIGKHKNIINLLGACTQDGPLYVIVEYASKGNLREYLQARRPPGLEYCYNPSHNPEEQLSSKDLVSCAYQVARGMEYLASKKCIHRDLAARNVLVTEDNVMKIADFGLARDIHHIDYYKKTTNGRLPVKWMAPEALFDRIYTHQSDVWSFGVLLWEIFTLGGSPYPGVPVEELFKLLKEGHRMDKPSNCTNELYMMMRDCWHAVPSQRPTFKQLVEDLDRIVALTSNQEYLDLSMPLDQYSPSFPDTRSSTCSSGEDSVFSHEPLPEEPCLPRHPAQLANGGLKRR
Description: The human osteosarcoma cell lines U2OS-TrkA/p75, U2OS-TrkB/p75, U2OS-TrkC/p75, U2OS-ratTrkA/p75, U2OS-FGFR1 (fibroblast growth factor receptor 1) as well as the human embryonic kidney cell line HEK293-IGF1R (insulin-like growth factor 1 receptor) from DiscoverX, Birmingham, United Kingdom, were used in the in vitro experiments. Eagle’s minimum essential medium (EMEM) ATCC #30-2003 from LGC Standards AB, Borås, Sweden; Leibovitz’s L15 medium, RPMI1640, fetal bovine serum, horse serum, penicillin/streptomycin, and Hoechst dye purchased from Invitrogen, Gothenburg, Sweden, were also used. Black poly-D-lysine coated 384-well plates (Viewplate) were purchased from PerkinElmer, Upplands Väsby, Sweden, and white 384-well assay plates(3570) were purchased from Corning, Amsterdam, Netherlands. […] Recombinant intracellular domain (ICD) of TrkA (08-186) and single site biotinylated activated (08-486-20N) or non-activated TrkA (08-486-23N) were obtained from Carna Biosciences, Odense, Denmark. […]
U2OS cells were maintained subconfluent in EMEM supplemented with 10% FBS and penicillin/streptomycin/hygromycin and G418. […] The functional (complemented) β-gal will hydrolyze a substrate to generate a luminescence signal. The generated luminescence was read using an EnVision plate reader from PerkinElmer, Upplands Väsby, Sweden, or an ID5 plate reader from Molecular Devices, Berkshire, RG41 5TS UK. […]

In the case of `Cc1cc(-n2c(=O)[nH]c(=O)n(C)c2=O)ccc1Oc1ccc(S(=O)(=O)C(F)(F)F)cc1` [ACD855, Toltrazuril-sulfone], the “increase in extracellular ACh levels in vHPC” value ([1]; local infusion of 30 µM over four hours, freely moving rats, vs vehicle (aCSF)) is reported as 40%, the “levels of glutamate, noradrenaline, dopamine and 5-hydroxytryptamine” value ([1]; local infusion of 30 µM, vHPC) is reported as “not affected” and the EC50 [2] is reported as 800 nM. The “FGFR1 Effect (efficacy)” value [2] was 44%.
